“And” between values parts separate entries of the source, which are not always exact repeats. Equal values may be shown once. Inconclusive results and toxic doses are left out.
System: P388 leukemia ip, CD2F1 mice, survival T/C
Experiment: NCI In Vivo Anticancer Drug Screen. Data for tumor model P388 Leukemia (intraperitoneal) in CD2F1 (CDF1) mice
Conditions: endpoint: median survival time, higher = longer survival
Summary of the method: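 Mice carrying the transplanted tumor received test compound or vehicle. Survival was recorded in each group, and the value is the treated-group measurement divided by that of the vehicle-treated control group.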

[1] = dose: 50.0 mg/kg/injection, schedule: Q01DX009 (ip), vehicle: Klucel (hydroxypropylcellulose) (HPC)
[2] = dose: 6.25 mg/kg/injection, schedule: Q01DX009 (ip), vehicle: saline with Tween-80
[3] = dose: 12.5 mg/kg/injection, schedule: Q01DX009 (ip), vehicle: saline with Tween-80
[4] = dose: 25.0 mg/kg/injection, schedule: Q01DX009 (ip), vehicle: saline with Tween-80
[5] = dose: 50.0 mg/kg/injection, schedule: Q01DX009 (ip), vehicle: saline with Tween-80
[6] = dose: 50.0 mg/kg/injection, schedule: Q01DX005 (ip), vehicle: saline
[7] = dose: 100.0 mg/kg/injection, schedule: Q01DX005 (ip), vehicle: saline
[8] = dose: 200.0 mg/kg/injection, schedule: Q01DX005 (ip), vehicle: saline
[9] = dose: 60.0 mg/kg/injection, schedule: Q01DX005 (ip), vehicle: Klucel (hydroxypropylcellulose) (HPC)
[10] = dose: 120.0 mg/kg/injection, schedule: Q01DX005 (ip), vehicle: Klucel (hydroxypropylcellulose) (HPC)
[11] = dose: 6.25 mg/kg/injection, schedule: Q01DX009 (ip), vehicle: saline
[12] = dose: 12.5 mg/kg/injection, schedule: Q01DX009 (ip), vehicle: saline
[13] = dose: 25.0 mg/kg/injection, schedule: Q01DX009 (ip), vehicle: saline
[14] = dose: 100.0 mg/kg/injection, schedule: Q01DX009 (ip), vehicle: saline with Tween-80

SMILES: CCCC1CC[N-]CC1.CCCC1CC[N-]CC1.[Cl][Pt+2]([Cl])([Cl])[Cl]
- T/C (dose: 1.0 mg/kg/injection, schedule: Q01DX009 (ip), vehicle: saline with Tween-80): 90 % of control
- T/C (dose: 2.0 mg/kg/injection, schedule: Q01DX009 (ip), vehicle: saline with Tween-80): 95 % of control
- T/C (dose: 3.75 mg/kg/injection, schedule: Q01DX009 (ip), vehicle: saline with Tween-80): 100 % of control
- T/C (dose: 4.0 mg/kg/injection, schedule: Q01DX009 (ip), vehicle: saline with Tween-80): 100 % of control
- T/C (dose: 11.0 mg/kg/injection, schedule: Q01DX009 (ip), vehicle: saline with Tween-80): 118 % of control
- T/C (dose: 25.0 mg/kg/injection, schedule: Q04DX003 (ip), vehicle: saline with Tween-80): 110 % of control
- T/C (dose: 37.5 mg/kg/injection, schedule: Q01DX009 (ip), vehicle: saline with Tween-80): 118 % of control
- T/C (dose: 50.0 mg/kg/injection, schedule: Q04DX003 (ip), vehicle: saline with Tween-80): 120 % of control
- T/C (dose: 75.0 mg/kg/injection, schedule: Q04DX003 (ip), vehicle: saline with Tween-80): 95 % of control

SMILES: CC(C)(O)c1ccccc1Br
- T/C [1]: 98 % of control
- T/C (dose: 100.0 mg/kg/injection, schedule: Q01DX009 (ip), vehicle: Klucel (hydroxypropylcellulose) (HPC)): 99 % of control
- T/C (dose: 200.0 mg/kg/injection, schedule: Q01DX009 (ip), vehicle: Klucel (hydroxypropylcellulose) (HPC)): 102 % of control

SMILES: CCC/C(=N\NC(=S)N(C)C)c1ccccn1
- T/C (dose: 12.5 mg/kg/injection, schedule: Q01DX005 (ip), vehicle: saline with Tween-80): 103 % of control
- T/C (dose: 25.0 mg/kg/injection, schedule: Q01DX005 (ip), vehicle: saline with Tween-80): 107 % of control
- T/C (dose: 50.0 mg/kg/injection, schedule: Q01DX005 (ip), vehicle: saline with Tween-80): 115 % of control and 117 % of control

SMILES: COc1ccc(S(=O)(=O)N=N/C=C2\C=CC=CN2O)cc1OC
- T/C (dose: 1.56 mg/kg/injection, schedule: Q01DX009 (ip), vehicle: saline with Tween-80): 104 % of control
- T/C (dose: 3.12 mg/kg/injection, schedule: Q01DX009 (ip), vehicle: saline with Tween-80): 103 % of control
- T/C [2]: 103 % of control
- T/C [3]: 100 % of control and 103 % of control and 90 % of control
- T/C (dose: 25.0 mg/kg/injection, schedule: Q01DX001 (ip), vehicle: saline with Tween-80): 100 % of control
- T/C [4]: 110 % of control and 114 % of control and 117 % of control
- T/C (dose: 50.0 mg/kg/injection, schedule: Q01DX001 (ip), vehicle: saline with Tween-80): 109 % of control
- T/C [5]: 119 % of control
- T/C (dose: 100.0 mg/kg/injection, schedule: Q01DX001 (ip), vehicle: saline with Tween-80): 118 % of control

SMILES: COc1ccc(-c2cnc(=O)[nH]c2N)cc1
- T/C (dose: 60.0 mg/kg/injection, schedule: Q01DX005 (ip), vehicle: suspension in saline): 99 % of control
- T/C (dose: 120.0 mg/kg/injection, schedule: Q01DX005 (ip), vehicle: suspension in saline): 97 % of control
- T/C (dose: 240.0 mg/kg/injection, schedule: Q01DX005 (ip), vehicle: suspension in saline): 105 % of control

SMILES: O=C1C(N=Nc2ccc(S(=O)(=O)Nc3ccccn3)cc2)C(=O)N(c2ccc(Cl)cc2)C(=S)N1c1ccc(Cl)cc1
- T/C [6]: 105 % of control
- T/C [7]: 114 % of control
- T/C [8]: 112 % of control

SMILES: CC1CCCCN1C=C1C(=O)OC(C)(C)OC1=O (centres undefined)
- T/C [9]: 95 % of control
- T/C [10]: 96 % of control

SMILES: O=C1OC(c2cccnc2)OC(c2ccccc2)=C1C(=O)c1ccccc1 (centres undefined)
- T/C [9]: 107 % of control
- T/C [10]: 98 % of control
- T/C (dose: 240.0 mg/kg/injection, schedule: Q01DX005 (ip), vehicle: Klucel (hydroxypropylcellulose) (HPC)): 97 % of control

SMILES: CCS(=O)(=O)c1ncnc2nc[nH]c12
- T/C (dose: 50.0 mg/kg/injection, schedule: Q01DX005 (ip), vehicle: Klucel (hydroxypropylcellulose) (HPC)): 100 % of control
- T/C (dose: 100.0 mg/kg/injection, schedule: Q01DX005 (ip), vehicle: Klucel (hydroxypropylcellulose) (HPC)): 102 % of control
- T/C (dose: 200.0 mg/kg/injection, schedule: Q01DX005 (ip), vehicle: Klucel (hydroxypropylcellulose) (HPC)): 100 % of control

SMILES: O=C1C(=O)c2ccccc2-c2ccccc21
- T/C [2]: 104 % of control
- T/C [3]: 104 % of control
- T/C [4]: 108 % of control
- T/C [5]: 100 % of control

SMILES: C1=C[N-]c2c3c(ccc2=C1)=CC=C[N-]3.C1=C[N-]c2c3c(ccc2=C1)=CC=C[N-]3.O=S(=O)(O)O.[Cu+2]
- T/C (dose: 1.56 mg/kg/injection, schedule: Q04DX002 (ip), vehicle: Klucel (hydroxypropylcellulose) (HPC)): 117 % of control
- T/C (dose: 3.12 mg/kg/injection, schedule: Q04DX002 (ip), vehicle: Klucel (hydroxypropylcellulose) (HPC)): 107 % of control
- T/C (dose: 6.25 mg/kg/injection, schedule: Q04DX002 (ip), vehicle: Klucel (hydroxypropylcellulose) (HPC)): 107 % of control
- T/C (dose: 12.5 mg/kg/injection, schedule: Q04DX002 (ip), vehicle: Klucel (hydroxypropylcellulose) (HPC)): 115 % of control

SMILES: CCC1(c2ccccc2)N=C1N(C)C (centres undefined)
- T/C [11]: 106 % of control and 92 % of control
- T/C [12]: 109 % of control and 120 % of control
- T/C [13]: 116 % of control and 118 % of control
- T/C (dose: 200.0 mg/kg/injection, schedule: Q01DX009 (ip), vehicle: saline): 93 % of control

SMILES: CCOC(=O)c1c[nH]c2c(=O)n(C)c(=O)[nH]c12
- T/C (dose: 100.0 mg/kg/injection, schedule: Q04DX003 (ip), vehicle: saline with Tween-80): 93 % of control
- T/C (dose: 200.0 mg/kg/injection, schedule: Q04DX003 (ip), vehicle: saline with Tween-80): 100 % of control

SMILES: CCCNCCC(O)c1cc(C(F)(F)F)nc2c(C(F)(F)F)cccc12 (centres undefined)
- T/C [4]: 102 % of control
- T/C [5]: 110 % of control
- T/C [14]: 109 % of control

SMILES: CO[n+]1ccccc1Cc1ccccc1
- T/C [11]: 118 % of control
- T/C [12]: 112 % of control and 119 % of control
- T/C [13]: 111 % of control
- T/C (dose: 50.0 mg/kg/injection, schedule: Q01DX009 (ip), vehicle: saline): 119 % of control

SMILES: Cn1c(N)c(C(=O)/C=C/c2ccccc2)c(=O)n(CCN2CCOCC2)c1=O
- T/C [6]: 100 % of control
- T/C [7]: 94 % of control
- T/C [8]: 89 % of control

SMILES: O=C(/C(=C\c1ccccc1)c1ccccc1)c1ccccc1
- T/C [5]: 92 % of control
- T/C [14]: 88 % of control
- T/C (dose: 200.0 mg/kg/injection, schedule: Q01DX009 (ip), vehicle: saline with Tween-80): 93 % of control
- T/C (dose: 400.0 mg/kg/injection, schedule: Q01DX009 (ip), vehicle: saline with Tween-80): 95 % of control

SMILES: N#CC(Br)(C#N)Cc1ccccc1
- T/C (dose: 25.0 mg/kg/injection, schedule: Q01DX009 (ip), vehicle: Klucel (hydroxypropylcellulose) (HPC)): 87 % of control
- T/C [1]: 100 % of control

SMILES: Cc1cccc(NC(=O)N(CCCl)N=O)c1
- T/C (dose: 0.38 mg/kg/injection, schedule: Q04DX003 (ip), vehicle: saline with Tween-80): 186 % of control
- T/C (dose: 0.75 mg/kg/injection, schedule: Q04DX003 (ip), vehicle: saline with Tween-80): 218 % of control
- T/C (dose: 1.5 mg/kg/injection, schedule: Q01DX009 (ip), vehicle: saline): 159 % of control
- T/C (dose: 1.5 mg/kg/injection, schedule: Q04DX003 (ip), vehicle: saline with Tween-80): 272 % of control
- T/C (dose: 3.0 mg/kg/injection, schedule: Q01DX009 (ip), vehicle: saline): 206 % of control
- T/C (dose: 3.13 mg/kg/injection, schedule: Q01DX009 (ip), vehicle: saline with Tween-80): 254 % of control
- T/C (dose: 3.13 mg/kg/injection, schedule: Q04DX003 (ip), vehicle: saline): 190 % of control
- T/C [2]: 95 % of control
- T/C (dose: 6.25 mg/kg/injection, schedule: Q04DX003 (ip), vehicle: saline with Tween-80): 200 % of control
- T/C (dose: 6.25 mg/kg/injection, schedule: Q04DX003 (ip), vehicle: saline): 209 % of control
- T/C (dose: 8.25 mg/kg/injection, schedule: Q04DX003 (ip), vehicle: saline with Tween-80): 276 % of control
- T/C (dose: 12.5 mg/kg/injection, schedule: Q04DX003 (ip), vehicle: saline with Tween-80): 272 % of control and 285 % of control
- T/C (dose: 12.5 mg/kg/injection, schedule: Q04DX003 (ip), vehicle: saline): 118 % of control

SMILES: CCN(CC)P1(=O)C=C(C)C2C1C1C=C(C)C2P1(=O)N(CC)CC (centres undefined)
- T/C (dose: 60.0 mg/kg/injection, schedule: Q01DX005 (ip), vehicle: saline): 108 % of control
- T/C (dose: 120.0 mg/kg/injection, schedule: Q01DX005 (ip), vehicle: saline): 101 % of control
- T/C (dose: 240.0 mg/kg/injection, schedule: Q01DX005 (ip), vehicle: saline): 102 % of control

From PubChem BioAssay AID330 (DTP/NCI, 2004)
